Experimental data: patent publication US8367602B2, “Consensus peptides and a method for inducing biomineralization” (Corticalis AS, priority 2006, dated 2013)
“And” between values parts separate entries of the source, which are not always exact repeats. Equal values may be shown once. Ends that are not written are not given here.

Legend:
[1] = Mineral precipitation (mfu by SEM) on peptide-coated coin shaped titanium specimens, Example 1
Experimental: Eight coin shaped implants with a diameter of 6.25 mm, was attached to an titanium electrode and submerged in an sterile electrolyte containing 0.5 M NaCl, adjusted to pH 8.0 by the use of 1.0 M NaOH, and a synthetic poly-proline peptide designed to stimulate nucleation of calcium phosphate crystals. The peptide, having a pI of 5.82, had the following sequence: PLV PSY PLV PSY PLV PSY PYP PLPP (SEQ ID NO:3), and was applied at a final concentration of 0.01 mg/ml in the electrolyte. The electrode was attached to the positive outlet of a power supply, and an electrical current of 10 Volts at 100 mA at a cell temperature of 40 degrees Celsius, was applied for eight hours. The electrolytic process produced a thin peptide coating onto the oxidized titanium surface visible as a greyish precipitation. After coating the titanium specimens were rinsed in sterile water and subsequently put into sterile glass containers where they were allowed to air-dry. Eight identical titanium specimens, treated identically as the test specimens with the exception that no peptides were added to the electrolyte, was produced as controls. After drying, the titanium specimens (peptide coated and controls) were submerged in 50 ml of a saturated solution of calcium phosphate at 50 degrees Celsius. The solution was then allowed to cool to room temperature and incubated at 25 degrees Celsius for 48 hours. The titanium specimens were then removed from the solution, rinsed briefly in sterile water and air-dried in a desiccator. When dry, the implants were directly analyzed by scanning electron microscopy (SEM) for quantitative and qualitative assessment of the number and nature of mineral precipitation foci present on their surfaces. The number of mineral forming units (mfu) on the surface directly corresponds to the number of mineral nucleation sites present on the surface during the experiments.
This is a strong indication that the synthetic peptide used here positively influence the formation of bone mineral deposition onto titanium surfaces.

[2] = Isoelectric point (pI) of the peptide; type: physicochemical
LDH activity [3] = experiment: Wound fluid LDH activity at implant site, physically adsorbed peptide, Example 6; type: in vivo, rabbits (New Zealand White); settings: 4 weeks healing, vs control implants; physical adsorption
Experimental: Peptides can be physically adsorbed onto a titanium surface, as an alternative method for covalent binding. Negatively charged carboxylic groups show a strong affinity for metal oxide surfaces and can therefore directly interact with the titanium surface (Imamura et al, 2007). Peptide solution (10 μl, 0.1 mg/ml) was applied to the surface of the titanium implant and incubated for 24 h at 37° C. After 24 h, titanium implants were rinsed and packed with the same method as described above. Control implants were treated with 10 μl of PBS without adding peptide.
(§1) The implants with consensus peptide coated surfaces (n=12) and controls (n=12) were placed in calibrated cortical bone defects in the tibia of rabbits (New Zealand White). A small central fenestration into the bone marrow beneath each implant was made to allow for migration of osteogenic cells to the implant surfaces. The methods used were all according to a standardized and validated model established for the study of bone attachment to titanium implant surfaces (Rønold and Ellingsen, 2002). Each rabbit received four implants, two in each tibia bone. Location of test and control implants was randomized and the operator was blinded. […]
(§2) LDH activity and total protein was analysed in the wound fluid collected from the implant site following a 4 week healing period. […]

LDH activity [4] = experiment: Wound fluid LDH activity at implant site, tresyl chloride coupled peptide, Example 5; type: in vivo, rabbits (New Zealand White); settings: 4 weeks healing, vs control implants; tresyl chloride coupling
Experimental: The surface of the machined titanium implant was first covered with 10 μl of tresyl chloride (2,2,2-trifluoroethanesulfonyl chloride) and incubated at 37° C. for 2 days. Then, the tresylated titanium implant was washed with water, water-acetone (50:50), acetone, and dried in a desiccator.
Peptide solution (10 μl, 0.1 mg/ml) was applied to the surface of the titanium implant and incubated for 24 h at 37° C., then rinsed with water. Finally, implants were dried in a desiccator, packed and stored at 4° C.
as §1, with “blinded. At four weeks after implantation the rabbits were sacrificed and the tibia bones with the implants attached were excised.” for “blinded.”
as §2

LDH activity in the periimplant tissue (wound fluid) (LDH activity [3]) | LDH activity in the periimplant tissue (wound fluid) (LDH activity [4]) | Substance | Number of mineral forming units (mfu) per square mm titanium surface assessed by SEM ([1]; individual peptide coated specimens, saturated calcium phosphate solution, 48 hours at 25 degrees Celsius) | Number of mineral forming units (mfu) per square mm titanium surface assessed by SEM, mean values ([1]; mean of peptide coated specimens (n = 8)) | number of mineral deposition foci versus controls ([1]; peptide coated titanium specimens vs controls without peptide) | pI [2]
 |  | PLV PSY PLV PSY PLV PSY PYP PLPP (PLVPSYPLVPSYPLVPSYPYPPLPP; Mineralization/biomineralization inducing peptide) [SEQ ID NO 3] | 5625 mfu mfu per square mm and Confluent (Values above 10.000 are recorded as “Confluent”) (4×) and 7744 mfu mfu per square mm and 9025 mfu mfu per square mm and 8100 mfu mfu per square mm | >8812 mfu mfu per square mm | significantly (p<0.01) increased | 5.82
decrease | decrease | PLVPSQPLVPSQPLVPSQPQPPLPP [SEQ ID NO 4, PLV PSQ PLV PSQ PLV PSQ PQP PLPP] |  |  |  | 
